Data on six compounds can be found in ChEMBL document CHEMBL1122099, “Antiallergics: 3-(1H-tetrazol-5-yl)-4H-pyrimido[2,1-b]benzothiazol-4-ones” (1982).

In experiment [1] the test system is Rattus norvegicus. Briefly: Tested for the antiallergic activity in rat passive cutaneous anaphylaxis (PCA) test; po. It counts as functional.
Experiment [2] has as its system Rattus norvegicus. Put plainly: Percent inhibition at a concentration of 25 mg/kg in rat passive cutaneous anaphylaxis (PCA) test. It counts as functional.
Experiment [3] has as its system Rattus norvegicus. Put plainly: Percent inhibition at a concentration of 1.0 mg/kg in methacholine induced bronchospasm in rat. In kind it is functional.
Experiment [4] has as its system Rattus norvegicus. Put plainly: Percent inhibition at a concentration of 0.02 mg/kg in methacholine induced bronchospasm in rat intraduodenally. The following applies: route intraduodenal. It counts as functional.
Experiment [5] has as its system Rattus norvegicus. Briefly: Percent inhibition at a concentration of 0.1 mg/kg in methacholine induced bronchospasm in rat. In kind it is functional.
The test system of experiment [6] is Rattus norvegicus. Put plainly: Percent inhibition at a concentration of 10.0 mg/kg in methacholine induced bronchospasm in rat. In kind it is functional.
Experiment [7] is filed under the species Rattus norvegicus. Put plainly: Tested for the bronchodilator activity by measuring inhibition of allergen induced bronchospasm in rat intra duodenally.

In turn, `N=c1c(-c2nnn[nH]2)cnc2sc3ccccc3n12` came in with a 50% effective dose (ED50) with Rattus norvegicus [1] of 8.1 mg/kg.
Still for that read-out and setting: the value for `Cc1cc(C)c2sc3ncc(-c4nnn[nH]4)c(=O)n3c2c1` was 1.96 mg/kg.
`Cc1cc2sc3ncc(-c4nnn[nH]4)c(=O)n3c2cc1C` gave an inhibition in vivo at 25 mg/kg with Rattus norvegicus [2] of 35%.
Compound `O=c1c(-c2nnn[n-]2)cnc2sc3ccccc3n12.[K+]` displayed an inhibition in vivo at 1 mg/kg with Rattus norvegicus [3] of 59.3%. Besides, the ED50 came to 0.08 mg/kg with Rattus norvegicus [1] and 0.38 mg/kg in the experiment listed under Rattus norvegicus [7]. In the experiment on Rattus norvegicus [4], at 0.02 mg/kg the inhibition in vivo was 13.2%. In the experiment with Rattus norvegicus [5], this compound displayed an inhibition in vivo at 0.1 mg/kg of 37.4%. This compound returned an inhibition in vivo at 10 mg/kg in the experiment with Rattus norvegicus [6] of 61%.
As for `COc1ccc2c(c1)sc1ncc(-c3nnn[nH]3)c(=O)n12`, the ED50 with Rattus norvegicus [1] came to 1.9 mg/kg.
With `O=C([O-])c1cc(=O)c2c(OCC(O)COc3cccc4oc(C(=O)[O-])cc(=O)c34)cccc2o1.[Na+].[Na+]` [CROMOLYN SODIUM], the ED50 in the experiment on Rattus norvegicus [1] was 0.3 mg/kg. Against the preceding compound, the ED50 is about 6.3-fold lower.

In general, ED50 refers to the dose at which the effect has come halfway, by size or by number of responders. One may read the inhibition in vivo as how much of the control response was suppressed. A higher inhibition in vivo goes with strong suppression.
